Results reported in ChEMBL document CHEMBL1149983, “Probing the S-1 subsite selectivity of an industrial alkaline protease in anhydrous t-butanol” (Bioorg Med Chem Lett, 1993).
Peptide text beside a SMILES is read from it. * marks the point of attachment. Cbz = O=C(OCc1ccccc1)*

Assay: Reaction time taken for industrial alkaline protease catalyzed synthesis using CBz-Phe-OCP as acyl donor and Gly-NH2 as nucleophile

Row | SMILES | Reaction time
1 | CC(C)C[C@H](NC(=O)CNC(=O)[C@H](Cc1ccccc1)NC(=O)OCc1ccccc1)C(N)=O (Cbz-Phe-Gly-Leu-NH2) | 1 h
2 | CC(C)C[C@H](NC(=O)[C@H](Cc1ccccc1)NC(=O)OCc1ccccc1)C(N)=O | 1 h
3 | NC(=O)[C@@H](Cc1ccccc1)NC(=O)[C@H](Cc1ccccc1)NC(=O)OCc1ccccc1 | 2 h
4 | CC(C)C[C@@H](NC(=O)[C@H](Cc1ccccc1)NC(=O)OCc1ccccc1)C(N)=O | 1.5 h
5 | NC(=O)[C@H](Cc1ccccc1)NC(=O)CNC(=O)[C@H](Cc1ccccc1)NC(=O)OCc1ccccc1 (Cbz-Phe-Gly-Phe-NH2) | 1 h
6 | NC(=O)CNC(=O)[C@H](Cc1ccccc1)NC(=O)OCc1ccccc1 (Cbz-Phe-Gly-NH2) | 1 h
7 | CCCOC(=O)[C@@H](C)NC(=O)[C@H](CC(=O)OCc1ccccc1)NC(=O)OCc1ccccc1 | 2 h
8 | NC(=O)CNC(=O)CNC(=O)[C@H](Cc1ccccc1)NC(=O)OCc1ccccc1 (Cbz-Phe-Gly-Gly-NH2) | 1.5 h
9 | NC(=O)[C@H](Cc1ccccc1)NC(=O)[C@H](Cc1ccccc1)NC(=O)OCc1ccccc1 | 1 h
